Data reported in patent US20070299136A1, “Crystalline and Amorphous Forms of Efaproxiral Sodium” (priority 2004, published 2007).

Columns and labels:
Format in all cases: physicochemical
[1] = Solid form remaining after heating or drying (XRPD)
Experimental: XRPD analyses were carried out on a Shimadzu XRD-6000 X-ray powder diffractometer using Cu Kα radiation. The instrument is equipped with a long fine focus X-ray tube. The tube voltage and amperage were set at […] and 40 mA, respectively. The divergence and scattering slits were set at 1° and the receiving slit was set at 0.15 mm. Diffracted radiation was detected by a […] scintillation detector. A theta-two theta continuous scan at 3′/min (0.4 sec/0.02° step) from 2.5 to 40 °2θ was used. A silicon standard was analyzed each day to check the instrument alignment. Samples were analyzed with an aluminum/silicon sample holder.
Efaproxiral sodium Form A (1125.7 mg) was dissolved completely in […] of ethanol at 48° C. Acetone (7600 μL) was slowly added over a one minute period. Form G and Form Q formed in the reactor at this time. After 1 minute 50 seconds, a further 6250 μL of acetone was added and the reactor was allowed to cool to approximately 25° C. and then to approximately 15° C. The solid material in the reactor during this interval was Form Q. After approximately 10 minutes had passed from the initial addition of acetone, the resulting powdery white solid was collected by vacuum filtration, washed with 6000 μL acetone and dried in a 52° C. vacuum oven.

[2] = Moisture balance / relative humidity exposure of efaproxiral sodium solid forms; details: for solid form after relative humidity is decreased to 5%: RH lowered to about 5% RH, sodium salt
Experimental: Approximately 100 mg of efaproxiral sodium Form A was placed in a 20 mL glass vial. The vial was placed, uncapped, in an ambient temperature relative humidity jar at 75% relative humidity for approximately 24 hours.
A quantity of Form A was placed on a weigh pan at about 0% relative humidity (RH). The RH was slowly raised to about 95% (adsorption) and was then lowered back to about 5% RH (desorption). The weight of the solid material was measured throughout. The results are depicted in FIG. 10. […] The resulting Form I loses slightly less than 4 moles of water as the humidity is further lowered to about 5% RH.

[3] = Thermogravimetric analysis (TGA) of solvated forms, ambient to 165° C.; details: for TGA weight loss: temperature raised from ambient to 165° C., sodium salt
Experimental: A screen for polymorphs and solvates of efaproxiral sodium was performed using a variety of crystallization techniques. The resulting polymorphs were analyzed using a number of analytical techniques well known in the art for their ability to differentiate between different polymorphs, including thermogravimetric analysis (TGA), reflectance Fourier transform infrared (FTIR) spectroscopy (see EXAMPLE 2), and X-ray powder diffraction (XRPD) (see EXAMPLE 3). TGA is often very useful for distinguishing between different solid forms of a material because the temperature(s) at which a physical change in a material occurs is usually characteristic of the polymorph or solvate. X-Ray Powder Diffraction (XRPD) is a technique that detects long-range and short-range order in a crystalline material. IR spectroscopy also detects both intramolecular and intermolecular bonding in solids, and further provides information regarding the chemical composition of the crystalline material.

[4] = Form A exposed to approximately 95% humidity

In the case of `Cc1cc(C)cc(NC(=O)Cc2ccc(OC(C)(C)C(=O)[O-])cc2)c1.[Na+]` [Form F, 2-[4-[2-[(3,5-dimethylphenyl)amino]-2-oxoethyl]phenoxy]-2-methyl-propionic acid, sodium salt], the “removal of lattice solvent (methanol) by heating” value ([1]; 80° C. for approximately 3 hours) is reported as “can be removed”.
For `Cc1cc(C)cc(NC(=O)Cc2ccc(OC(C)(C)C(=O)[O-])cc2)c1.[Na+]` [Form A, 2-[4-[2-[(3,5-dimethylphenyl)amino]-2-oxoethyl]phenoxy]-2-methyl-propionic acid, sodium salt], the “water uptake equivalent to weight gain” value [2, 4] was “approximately 7 moles of water/mole efaproxiral sodium”, the weight gain [2, 4] was “approximately 34%” and the “water uptake equivalent to weight gain” value ([2]; Form A incubated at high relative humidity) was “about 4 moles of water/mole efaproxiral sodium”. For the same compound, the weight gain ([2]; Form A incubated at high relative humidity (75% RH, ambient temperature, approximately 24 hours)) was “approximately 20%”, the “water gained (adsorption)” value ([2]; RH raised from about 0% to about 85% RH, converts to Form I) was “about 4 moles of water/mole efaproxiral sodium” and the “solid form after incubation at high relative humidity” value ([2]; high relative humidity) was “Form I”. For the same compound, the “further water gained (adsorption)” value ([2]; humidity raised further to about 95% RH, converts to Form J) was “about 3 moles of water/mole efaproxiral sodium”.
For `Cc1cc(C)cc(NC(=O)Cc2ccc(OC(C)(C)C(=O)[O-])cc2)c1.[Na+]` [Form I, 2-[4-[2-[(3,5-dimethylphenyl)amino]-2-oxoethyl]phenoxy]-2-methyl-propionic acid, sodium salt], the “solid form after relative humidity is decreased to 5%” value [2] was “amorphous efaproxiral sodium” and the “water lost (desorption)” value ([2]; humidity further lowered to about 5% RH) was “less than 4 moles of water”.
In the case of `Cc1cc(C)cc(NC(=O)Cc2ccc(OC(C)(C)C(=O)[O-])cc2)c1.[Na+]` [Form J, 2-[4-[2-[(3,5-dimethylphenyl)amino]-2-oxoethyl]phenoxy]-2-methyl-propionic acid, sodium salt], the “solid form after relative humidity is decreased to 5%” value [2] is reported as “Amorphous material” and the “water lost (desorption)” value ([2]; humidity lowered from about 95% to about 20% RH, converts to Form I) is reported as “about 3 moles of water/mole efaproxiral sodium”.
With `Cc1cc(C)cc(NC(=O)Cc2ccc(OC(C)(C)C(=O)[O-])cc2)c1.[Na+]` [Form P, 2-[4-[2-[(3,5-dimethylphenyl)amino]-2-oxoethyl]phenoxy]-2-methyl-propionic acid, sodium salt] the “solid form remaining after heating (XRPD)” value ([1]; heated to 156° C.) was “Form A”, the “solvent loss equivalent to TGA weight loss” value ([3]; ambient to 165° C.) was “about 1 mole of ethanol per mole of efaproxiral sodium” and the TGA weight loss [3] was “approximately 10.6%”.
For `Cc1cc(C)cc(NC(=O)Cc2ccc(OC(C)(C)C(=O)[O-])cc2)c1.[Na+]` [Form Q, 2-[4-[2-[(3,5-dimethylphenyl)amino]-2-oxoethyl]phenoxy]-2-methyl-propionic acid, sodium salt], the “solid form after drying” value ([1]; 52° C. vacuum oven, 14 hours of drying) was “Form Q”, the “solid form after drying” value ([1]; 52° C. vacuum oven, 32 hours of drying) was “Form Q” and the “solid form after drying” value ([1]; dried at 70° C. under vacuum) was “Form B”. The “solid form remaining after heating (XRPD)” value ([1]; heated to about 165° C.) was “Form A”, the “solvent loss equivalent to TGA weight loss” value ([3]; ambient to about 165° C.) was “½ to about ⅓” and the TGA weight loss [3] was “approximately 5.7%”.
